Reference: US6525001B1, “Substituted pyrimidine and pyridine herbicides” (Mid-American Commercialization Corporation, priority 1997, dated 2003)

Tests used:
Assay type in all cases: in vivo
Set-up in all cases: key: 0 is no effect; 100 is complete control
[1] = tested on: quackgrass (Agropyron repens); test: Test E pre-/postemergence/post directed; conditions: PREEMERGENCE
In short: (§1)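 Injury was scored visually on a 0 to 100 scale (100 = complete control) 13 to 21 days after treatment of greenhouse-grown plants. Test chemicals, in a surfactant-containing non-phytotoxic solvent, were sprayed onto soil within a day of planting, onto plants at the two to four leaf stage, or directed at the base of the plants.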

[2] = tested on: arrowleaf sida (Sida rhombifolia); test: Test E pre-/postemergence/post directed; conditions: PREEMERGENCE
In short: as §1

[3] = tested on: leafy spurge (Euphorbia esula); test: Test E pre-/postemergence/post directed; conditions: PREEMERGENCE
In short: as §1

B. signalgrass = test: Test E pre-/postemergence/post directed; conditions: PREEMERGENCE
In short: as §1

[4] = tested on: common chickweed (Stellaria media); test: Test E pre-/postemergence/post directed; conditions: PREEMERGENCE
In short: as §1

[5] = tested on: annual bluegrass (Poa annua); test: Test E pre-/postemergence/post directed; conditions: PREEMERGENCE
In short: as §1

[6] = tested on: sandbur (Cenchrus echinatus); test: Test E pre-/postemergence/post directed; conditions: PREEMERGENCE
In short: as §1

[7] = tested on: johnson grass (Sorghum halepense); test: Test E pre-/postemergence/post directed
In short: as §1

[8] = tested on: Spanishneedles (Bidens bipinnata); test: Test E pre-/postemergence/post directed; conditions: PREEMERGENCE
In short: as §1

[9] = tested on: alexandergrass (Brachiaria plantaginea); test: Test E pre-/postemergence/post directed; conditions: PREEMERGENCE
In short: as §1

[10] = tested on: green foxtail (Setaria viridis); test: Test E pre-/postemergence/post directed; conditions: PREEMERGENCE
In short: as §1

[11] = tested on: wild mustard (Sinapis arvensis); test: Test D; conditions: PREEMERGENCE
rape (Brassica napus) = test: Test D; conditions: PREEMERGENCE
[12] = tested on: downy brome (Bromus tectorum); test: Test D; conditions: PREEMERGENCE
[13] = tested on: pitted morningglory (Ipomoea lacunosa); test: Test E pre-/postemergence/post directed; conditions: PREEMERGENCE
In short: as §1

Compound: Cc1cnc(-c2ccc(C(F)(F)F)cc2)nc1Cc1cccc(OC(F)(F)F)c1 [Compound 15]
- Plant response rating, Quackgrass ([1]; Rate 32 g/ha): 65
- Plant response rating, Quackgrass ([1]; Rate 64 g/ha): 65
- Plant response rating, Quackgrass ([1]; Rate 125 g/ha): 95
- Plant response rating, Quackgrass ([1]; Rate 250 g/ha): 95
- Plant response rating, Arrowleaf sida ([2]; Rate 32 g/ha): 65
- Plant response rating, Arrowleaf sida ([2]; Rate 64 g/ha): 50
- Plant response rating, Arrowleaf sida ([2]; Rate 125 g/ha): 100
- Plant response rating, Arrowleaf sida ([2]; Rate 250 g/ha): 100
- Plant response rating, Leafy spurge ([3]; Rate 32 g/ha): 35
- Plant response rating, Leafy spurge ([3]; Rate 64 g/ha): 65
- Plant response rating, Leafy spurge ([3]; Rate 250 g/ha): 98
- Plant response rating, B. signalgrass (B. signalgrass; Rate 32 g/ha): 35
- Plant response rating, B. signalgrass (B. signalgrass; Rate 64 g/ha): 60
- Plant response rating, B. signalgrass (B. signalgrass; Rate 125 g/ha): 95
- Plant response rating, B. signalgrass (B. signalgrass; Rate 250 g/ha): 98
- Plant response rating, Com. chickweed ([4]; Rate 32 g/ha): 65
- Plant response rating, Com. chickweed ([4]; Rate 64 g/ha): 85
- Plant response rating, Com. chickweed ([4]; Rate 125 g/ha): 98
- Plant response rating, Com. chickweed ([4]; Rate 250 g/ha): 100
- Plant response rating, A. bluegrass ([5]; Rate 32 g/ha): 100
- Plant response rating, A. bluegrass ([5]; Rate 64 g/ha): 100
- Plant response rating, A. bluegrass ([5]; Rate 125 g/ha): 100
- Plant response rating, A. bluegrass ([5]; Rate 250 g/ha): 100
- Plant response rating, Sandbur ([6]; Rate 250 g/ha): 100
- Plant response rating, Johnsongrass ([7]; POSTEMERGENCE, Rate 250 g/ha): 100
- Plant response rating, Johnsongrass ([7]; PREEMERGENCE, Rate 250 g/ha): 100
- Plant response rating, Spanishneedles ([8]; Rate 250 g/ha): 100
- Plant response rating, Alexandergrass ([9]; Rate 125 g/ha): 100
- Plant response rating, Alexandergrass ([9]; Rate 250 g/ha): 100
- Plant response rating, Green foxtail ([10]; Rate 32 g/ha): 100
- Plant response rating, Green foxtail ([10]; Rate 64 g/ha): 100
- Plant response rating, Green foxtail ([10]; Rate 125 g/ha): 100
- Plant response rating, Green foxtail ([10]; Rate 250 g/ha): 100

Compound: CCc1cnc(-c2ccc(C(F)(F)F)cc2)nc1Cc1cccc(C(F)(F)F)c1 [Compound 22]
- Plant response rating, Wild mustard ([11]; Rate 62 g/ha): 30
- Plant response rating, Wild mustard ([11]; Rate 125 g/ha): 60
- Plant response rating, Wild mustard ([11]; Rate 250 g/ha): 30
- Plant response rating, Rape (rape (Brassica napus); Rate 62 g/ha): 20
- Plant response rating, Rape (rape (Brassica napus); Rate 125 g/ha): 100
- Plant response rating, Rape (rape (Brassica napus); Rate 250 g/ha): 50
- Plant response rating, Downy brome ([12]; Rate 125 g/ha): 100

Compound: COc1cnc(-c2ccc(C(F)(F)F)cc2)nc1Cc1cccc(C(F)(F)F)c1 [Compound 23]
- Plant response rating, Spanishneedles ([8]; Rate 125 g/ha): 100
- Plant response rating, Spanishneedles ([8]; Rate 250 g/ha): 100

Compound: Cc1cnc(-n2ccc(C(F)(F)F)n2)nc1Cc1cccc(OC(F)(F)F)c1 [Compound 42]
- Plant response rating, Spanishneedles ([8]; Rate 125 g/ha): 100

Compound: CCc1cnc(-n2ccc(C(F)(F)F)n2)nc1Cc1cccc(C(F)(F)F)c1 [Compound 46]
- Plant response rating, Wild mustard ([11]; Rate 31 g/ha): 90
- Plant response rating, Wild mustard ([11]; Rate 62 g/ha): 100
- Plant response rating, Rape (rape (Brassica napus); Rate 31 g/ha): 50
- Plant response rating, Rape (rape (Brassica napus); Rate 62 g/ha): 100

Compound: Cc1cnc(-n2cnc(C(F)(F)F)n2)nc1Cn1ccc(C(F)(F)F)n1 [Compound 51]
- Plant response rating, Wild mustard ([11]; Rate 31 g/ha): 100
- Plant response rating, Wild mustard ([11]; Rate 62 g/ha): 100
- Plant response rating, Rape (rape (Brassica napus); Rate 31 g/ha): 100
- Plant response rating, Rape (rape (Brassica napus); Rate 62 g/ha): 100

Compound: Cc1cnc(-n2ccc(C(F)(F)F)n2)nc1Cn1ccc(C(F)(F)F)n1 [Compound 52]
- Plant response rating, P. morninglory ([13]; Rate 64 g/ha): 100
- Plant response rating, P. morninglory ([13]; Rate 125 g/ha): 100
- Plant response rating, Wild mustard ([11]; Rate 31 g/ha): 90
- Plant response rating, Wild mustard ([11]; Rate 62 g/ha): 90
- Plant response rating, Wild mustard ([11]; Rate 125 g/ha): 100
- Plant response rating, Rape (rape (Brassica napus); Rate 31 g/ha): 50
- Plant response rating, Rape (rape (Brassica napus); Rate 62 g/ha): 60
- Plant response rating, Rape (rape (Brassica napus); Rate 125 g/ha): 100

Compound: Cc1cnc(-c2ccc(C(F)(F)F)cc2)nc1Cc1cccc(C(F)(F)F)c1 [Example 1, 5-methyl-2-[4-(trifluoromethyl)phenyl]-4-[[3-(trifluoromethyl)phenyl]methyl]pyrimidine]
- Plant response rating, Quackgrass ([1]; Rate 32 g/ha): 65
- Plant response rating, Quackgrass ([1]; Rate 64 g/ha): 80
- Plant response rating, Quackgrass ([1]; Rate 125 g/ha): 100
- Plant response rating, Arrowleaf sida ([2]; Rate 32 g/ha): 98
- Plant response rating, Arrowleaf sida ([2]; Rate 64 g/ha): 98
- Plant response rating, Arrowleaf sida ([2]; Rate 125 g/ha): 100
- Plant response rating, P. morninglory ([13]; Rate 125 g/ha): 100
- Plant response rating, P. morninglory ([13]; Rate 250 g/ha): 100
- Plant response rating, Leafy spurge ([3]; Rate 32 g/ha): 75
- Plant response rating, Leafy spurge ([3]; Rate 64 g/ha): 95
- Plant response rating, Leafy spurge ([3]; Rate 125 g/ha): 100
- Plant response rating, B. signalgrass (B. signalgrass; Rate 32 g/ha): 20
- Plant response rating, B. signalgrass (B. signalgrass; Rate 64 g/ha): 90
- Plant response rating, B. signalgrass (B. signalgrass; Rate 125 g/ha): 100
- Plant response rating, Com. chickweed ([4]; Rate 32 g/ha): 30
- Plant response rating, Com. chickweed ([4]; Rate 64 g/ha): 95
- Plant response rating, Com. chickweed ([4]; Rate 125 g/ha): 100
- Plant response rating, A. bluegrass ([5]; Rate 32 g/ha): 90
- Plant response rating, A. bluegrass ([5]; Rate 64 g/ha): 100
- Plant response rating, A. bluegrass ([5]; Rate 125 g/ha): 100
- Plant response rating, Sandbur ([6]; Rate 250 g/ha): 100
- Plant response rating, Johnsongrass ([7]; PREEMERGENCE, Rate 250 g/ha): 100
- Plant response rating, Spanishneedles ([8]; Rate 250 g/ha): 100
- Plant response rating, Alexandergrass ([9]; Rate 250 g/ha): 100
- Plant response rating, Green foxtail ([10]; Rate 32 g/ha): 100
- Plant response rating, Green foxtail ([10]; Rate 64 g/ha): 100
- Plant response rating, Green foxtail ([10]; Rate 125 g/ha): 100
- Plant response rating, Wild mustard ([11]; Rate 31 g/ha): 60
- Plant response rating, Wild mustard ([11]; Rate 62 g/ha): 100
- Plant response rating, Wild mustard ([11]; Rate 125 g/ha): 100
- Plant response rating, Wild mustard ([11]; Rate 250 g/ha): 98
- Plant response rating, Rape (rape (Brassica napus); Rate 31 g/ha): 30
- Plant response rating, Rape (rape (Brassica napus); Rate 62 g/ha): 75
- Plant response rating, Rape (rape (Brassica napus); Rate 125 g/ha): 100
- Plant response rating, Rape (rape (Brassica napus); Rate 250 g/ha): 100
- Plant response rating, Downy brome ([12]; Rate 250 g/ha): 100

Compound: Cc1cnc(-n2ccc(C(F)(F)F)n2)nc1Cc1cccc(C(F)(F)F)c1 [Example 2, 5-methyl-4-[[3-(trifluoromethyl)phenyl]methyl]-2-[3-(trifluoromethyl)-1H-pyrazol-1-yl]pyrimidine]
- Plant response rating, Quackgrass ([1]; Rate 32 g/ha): 20
- Plant response rating, Quackgrass ([1]; Rate 64 g/ha): 90
- Plant response rating, Quackgrass ([1]; Rate 125 g/ha): 100
- Plant response rating, Quackgrass ([1]; Rate 250 g/ha): 100
- Plant response rating, Arrowleaf sida ([2]; Rate 32 g/ha): 98
- Plant response rating, Arrowleaf sida ([2]; Rate 64 g/ha): 100
- Plant response rating, Arrowleaf sida ([2]; Rate 125 g/ha): 100
- Plant response rating, Arrowleaf sida ([2]; Rate 250 g/ha): 100
- Plant response rating, P. morninglory ([13]; Rate 32 g/ha): 100
- Plant response rating, P. morninglory ([13]; Rate 64 g/ha): 100
- Plant response rating, P. morninglory ([13]; Rate 125 g/ha): 100
- Plant response rating, P. morninglory ([13]; Rate 250 g/ha): 100
- Plant response rating, P. morninglory ([13]; Rate 500 g/ha): 100
- Plant response rating, Leafy spurge ([3]; Rate 32 g/ha): 60
- Plant response rating, Leafy spurge ([3]; Rate 64 g/ha): 98
- Plant response rating, Leafy spurge ([3]; Rate 125 g/ha): 100
- Plant response rating, Leafy spurge ([3]; Rate 250 g/ha): 100
- Plant response rating, B. signalgrass (B. signalgrass; Rate 32 g/ha): 65
- Plant response rating, B. signalgrass (B. signalgrass; Rate 64 g/ha): 100
- Plant response rating, B. signalgrass (B. signalgrass; Rate 125 g/ha): 100
- Plant response rating, B. signalgrass (B. signalgrass; Rate 250 g/ha): 100
- Plant response rating, Com. chickweed ([4]; Rate 32 g/ha): 100
- Plant response rating, Com. chickweed ([4]; Rate 64 g/ha): 100
- Plant response rating, Com. chickweed ([4]; Rate 125 g/ha): 100
- Plant response rating, Com. chickweed ([4]; Rate 250 g/ha): 100
- Plant response rating, A. bluegrass ([5]; Rate 32 g/ha): 80
- Plant response rating, A. bluegrass ([5]; Rate 64 g/ha): 100
- Plant response rating, A. bluegrass ([5]; Rate 125 g/ha): 100
- Plant response rating, A. bluegrass ([5]; Rate 250 g/ha): 100
- Plant response rating, Sandbur ([6]; Rate 250 g/ha): 100
- Plant response rating, Sandbur ([6]; Rate 500 g/ha): 100
- Plant response rating, Johnsongrass ([7]; PREEMERGENCE, Rate 250 g/ha): 100
- Plant response rating, Johnsongrass ([7]; PREEMERGENCE, Rate 500 g/ha): 100
- Plant response rating, Spanishneedles ([8]; Rate 64 g/ha): 100
- Plant response rating, Spanishneedles ([8]; Rate 125 g/ha): 100
- Plant response rating, Spanishneedles ([8]; Rate 250 g/ha): 100
- Plant response rating, Spanishneedles ([8]; Rate 500 g/ha): 100
- Plant response rating, Alexandergrass ([9]; Rate 125 g/ha): 100
- Plant response rating, Alexandergrass ([9]; Rate 250 g/ha): 100
- Plant response rating, Alexandergrass ([9]; Rate 500 g/ha): 100
- Plant response rating, Green foxtail ([10]; Rate 32 g/ha): 90
- Plant response rating, Green foxtail ([10]; Rate 64 g/ha): 100
- Plant response rating, Green foxtail ([10]; Rate 125 g/ha): 100
- Plant response rating, Green foxtail ([10]; Rate 250 g/ha): 100

Compound: Cc1cnc(-c2ccc(C(F)(F)F)cc2)nc1Cn1ccc(C(F)(F)F)n1 [compound 9]
- Plant response rating, P. morninglory ([13]; Rate 250 g/ha): 100
- Plant response rating, Alexandergrass ([9]; Rate 250 g/ha): 100
